Each structure is given as a SMILES string. Read-outs that look alike come from different tables or passages of the source.

Data set [1] can be described thus: Drug solubility in individual excipients.
Data set [2] can be described thus: In vitro permeation testing (IVPT), diffusion cell. Particulars: cumulative amount in receptor solution versus time (FIGS. 2-4).
Text: With reference to FIG. 1, in vitro skin permeation experiments used a diffusion cell designed to mimic the physiological and anatomical conditions of skin in situ. The diffusion cell included a donor compartment configured to receive the formulation, or solvent system, to be tested. A receptor compartment included a flow path for receptor solution, which was to be analyzed. Dermatomed skin was arranged between the donor compartment and receptor compartment. As such, a formulation comprising the solvent system having the drug is applied to the skin in the donor compartment. A portion of the drug permeated through the skin into the receptor solution, which was analyzed to determine drug concentration at several time periods, including 0.25, 0.5, 1, 1.5 2, 4, 6 and 8 hours. […]
The receptor solution was collected and analyzed as discussed. The cumulative amount per cm^2 of phentolamine, papaverine, and prostaglandin permeated into the receptor solution was calculated from drug concentrations measured in the receptor solution over time. The cumulative amount per cm^2 of phentolamine, papaverine, and prostaglandin at the final timepoint was calculated for each replicate. […] Means and standard errors were calculated and reported in figures and tables, including Tables 5 and 6 below.
Where [3] appears, read: in water, buffer solutions (pH 4 and 7) and glycerol.

For the molecule `COc1ccc(Cc2nccc3cc(OC)c(OC)cc23)cc1OC.Cl` [Papaverine HCl, papaverine hydrochloride], the Saturated solubility (solvent system SSAG01, all three drugs combined) is reported as 7.58 % w/w; the Saturated solubility (solvent system SSAG01, drug added individually) amounted to 6.39 % w/w; the Saturated solubility (solvent system SSAG02, all three drugs combined) is given as 9.44 % w/w; the Saturated solubility (solvent system SSAG02, drug added individually) stood at 7.21 % w/w; the Saturated solubility (upon addition of phentolamine mesylate and prostaglandin E1, span over all solvent systems) was 7.58-9.44 % w/w. Also, the “Solubility (in words)” value in data set [1] (in ethanol and transcutol P) was “poorly soluble”; in data set [1] (setting [3]) it was “moderately soluble”. Moreover, the Solubility in data set [1] (setting [3]) was 2-3 % w/w. The “Amount permeated through the skin, SSAG02 with all of the drugs versus SSAG02 with the drug alone” value in data set [2] is “much greater amount”.
`CCCCC[C@H](O)/C=C/[C@H]1[C@H](O)CC(=O)[C@@H]1CCCCCCC(=O)O` [Prostaglandin E1]: the “Solubility (in words)” value is listed as “strongly soluble” in data set [1] (in ethanol and transcutol P); “poorly soluble” in data set [1] (setting [3]).

Values taken from US12053479B2, “Transdermal treatment for erectile dysfunction” (Madera Pharmaceuticals, Inc., priority 2020, dated 2024).
